System: MCF7 cells
Assay: Cytotoxic reagent assay: Doxorubicin, MTT live cells and 41/7 ELISA
Type: cell-based
Details: 450 nM, 1-96 hours, MCF7, FIG. 7
Protocol: 2. In this experiment, the effect of a known cancer chemotherapeutic agent (Doxorubicin, Sigma Inc.) on soluble nuclear matrix protein release into extracellular fluid was assessed.
A standard curve for live cells was established with MCF7 cells (breast carcinoma, adherent). Cells were seeded into 6 well plates in 2 mls of DME complete (5% FCS+SerXtend) with 0.5 micrograms/ml mitomycin C (Sigma, Inc., Cincinnati) to prevent any cell growth.
After incubating overnight at 37° C., 200 μl of 3-[4, 5 Dimethylthiazol-2-4] 2, 5-dipheny(tetrazoluim bromide), MTT, stock solution (5 mg/ml MTT in phosphate-buffered saline, Sigma, Inc.) were added to each well. After the plates were incubated for four hours at 37° C. and 5% CO2 the supernatants were aspirated off and 4 mls of DMSO (dimethyl sulfoxide) were added to solubilize remaining crystals. This was drawn off and the absorbance was read in the spectrophotometer at 562 nm against a blank of straight DMSO.
Cells were treated with Doxorubicin as follows: MCF7 cells were seeded into 6 well plates at a density of 1.3×10^5 cells/well in 2 mls DME complete. […]
At 1, 24, 48, 72, and 96 hours, the supernatants were removed and frozen at −20° C. to assay later. After replacing the supernatant with a fresh 2 ml of DME complete, the number of live cells was determined using the same procedure as for the standard curve. […]

Q: How did the “cell viability (MTT live cells) versus nuclear matrix protein released (41/7 ELISA)” value turn out when `COc1cccc2c1C(=O)c1c(O)c3c(c(O)c1C2=O)C[C@@](O)(C(=O)CO)C[C@@H]3O[C@H]1C[C@H](N)[C@H](O)[C@H](C)O1` [Doxorubicin] was run?
A: The value was “inversely related to nuclear matrix protein released”.

— patent US6740494B2, “Nuclear matrix protein fluid assay” (Matritech, Inc., priority 1991, dated 2004)
